{"source": "patent US10626107B2", "about": "“Crystal form, salt type of substituted 2-hydro-pyrazole derivative and preparation method therefor” (CHIA TAI TIANQING PHARMACEUTICAL GROUP CO., LTD., priority 2016, dated 2020)", "key": {"[1]": {"tested_on": "human breast cancer MCF-7 subcutaneous xenograft tumor", "type": "in vivo", "text": "Cell line-derived xenograft (CDX) BALB/c nude mice that were female, 6- to 8-week old, weighed 20 g, and subcutaneously implanted with human tumor cell line derived from MCF-7 breast cancer patients were used. A total of 150 mice were needed, which were purchased from Beijing Vital River Laboratory Animal Technology Co., Ltd.\nBALB/c nude mice that were female, 6- to 8-week old, and weighed approximately 20 g were used. The mice were maintained in separate ventilated cages (10 mice per cage) in a special pathogen-free environment. All the cages, bedding and water were disinfected prior to use. All the animals were free to access a standard certified commercial laboratory diet. A total of 150 mice were purchased from Beijing Vital River Laboratory Animal Technology Co., Ltd. for research. Each mouse was implanted subcutaneously with an estrogen tablets (0.18 mg/tablet, 60-day sustained release) in the left back. After 3 days, each mouse was implanted with tumor cells (10×10^6 in 0.2 mL of phosphate buffer) subcutaneously in the right back for tumor growth. Administration was started when the average tumor volume reached about 150 to 200 mm^3. The test compounds were orally administered daily, and the administration dosages were as shown in the above table. The tumor volumes were measured twice a week using a two-dimensional caliper. The volumes were expressed in cubic millimeters and calculated by the following formula: V=0.5 a×b^2, wherein a and b were the long diameter and short diameter of a tumor, respectively. The anti-tumor efficacy was determined by dividing the average increase of the tumor volumes of the animals treated with a compound by the average increase of the tumor volumes of the animals without being treated with the compound."}, "[2]": {"tested_on": "human lung cancer LU-01-0393 subcutaneous xenograft tumor", "assay": "In vivo drug efficacy study (II): human lung cancer LU-01-0393 subcutaneous xenograft tumor model", "parameters": "species or system BALB/c nude mice", "conditions": "120.0 mg/kg PO QD × 3W", "text": "Cell line-derived xenograft (CDX) BALB/c nude mice that were female, 6- to 8-week old, weighed 17 to 20 g, and subcutaneously implanted with human tumor cell line derived from LU-01-0393 lung cancer patient were used. A total of 72 mice were needed and were purchased from Shanghai Xipuer-Bikai Experimental Animal Co., Ltd. Human lung cancer LU-01-0393 tumor (i.e., non-small cell lung cancer) was originally derived from a clinical sample of a surgical resection. It was defined as passage PO after being inoculated to nude mice, and the tumor of passage PO was re-inoculated to nude mice and was then defined as passage P1, and so forth. Passage was performed in nude mice. LU-01-0393-FP5 was obtained from the transplantation after the recovery of P4. This study would use the tumor tissue of passage FP6.\nBALB/c nude mice that were female, 6- to 8-week old, and weighed approximately 17 to 20 g were used. The mice were maintained in separate ventilated cages in a special pathogen-free environment. All the cages, bedding and water were disinfected prior to use. All the animals were free to access a standard certified commercial laboratory diet. A total of 72 mice purchased from Shanghai Xipuer-Bikai Experimental Animal Co., Ltd. were used for the study. The LU-01-0393 FP6 tumor tissue was cut to 20 to 30 mm^3 and inoculated to the right back of each mouse to wait for the tumor growth. When the average tumor volume reached about 171 mm^3, the mice were randomized into groups and administered. The test compounds were orally administered daily, and the administration dosages were as shown in the above table. The tumor diameters were measured twice a week using a two-dimensional caliper. The tumor volumes were calculated by the following formula: V=0.5 a×b^2, wherein a and b were the long diameter and the short diameter of a tumor, respectively. The anti-tumor efficacy was determined by dividing the average increase of the tumor volumes of the animals treated with a compound by the average increase of the tumor volumes of the animals without being treated with the compound."}, "[3]": {"tested_on": "MCF-7 breast cancer cells", "assay": "Inhibition assay of the A crystal form of WX_1 on MCF-7 breast cancer cell proliferation (CellTiter-Glo)", "type": "cell-based", "conditions": "Homo sapiens, MCF7, 144 h; MCF-7 cells, 6 days", "method": "(§1) RPMI 1640 medium, fetal bovine serum and penicillin/streptomycin as antibiotics were purchased from Promega (Madison, Wis.). The MCF-7 cell line was purchased from the European Collection of Authenticated Cell Cultures (ECACC). Envision MultiLabel Plate Reader (PerkinElmer).\n(§2) MCF-7 cells were seeded in a black 384-well plate with 45 μL of cell suspension (containing 200 MCF-7 cells) per well. The cell plate was placed in a carbon dioxide incubator for overnight culture.\n(§3) The test compounds were diluted 3 times to the 10th concentration with Bravo, i.e., diluted from 10 μM to 0.508 nM, and a duplicate-well experiment was set. The medium was added to the middle plate in an amount of 49 μL per well. The gradient-diluted compounds were transferred in an amount of 1 μL per well to the middle plate according to the corresponding positions, and the mixture was mixed evenly and transferred to the cell plate in an amount of 5 μL per well. The cell plate was incubated in a carbon dioxide incubator for 6 days.\nPromega CellTiter-Glo reagent was added to the cell plate in an amount of […] per well, and incubated for 10 minutes at room temperature to stabilize the luminescence signal. Reading was performed using a PerkinElmer Envision Multilabel Plate Reader."}, "[4]": {"tested_on": "MCF-7 cells", "assay": "Inhibition assay of the compound of formula (I) on the proliferation of MCF-7 cells (CellTiter-Glo)", "type": "cell-based", "conditions": "Homo sapiens, MCF7, 144 h, 6 days", "method": "as §1, with “and the MDA-MB-436 cell line were” for “was”, “Multilabel” for “MultiLabel”\nas §2, §3\n(§4) Promega CellTiter-Glo reagent was added to the cell plate in an amount of 25 μL per well, and incubated for 10 minutes at room temperature to stabilize the luminescence signal. Reading was performed using a PerkinElmer Envision Multilabel Plate Reader."}, "[5]": {"tested_on": "MDA-MB-436 cells", "assay": "Inhibition assay of the compound of formula (I) on the proliferation of MDA-MB-436 cells (CellTiter-Glo)", "type": "cell-based", "conditions": "Homo sapiens, 144 h, 6 days", "method": "as §1, with “and the MDA-MB-436 cell line were” for “was”, “Multilabel” for “MultiLabel”\nMDA-MB-436 cells were seeded in a black 384-well plate with 45 μL of cell suspension (containing 585 MDA-MB-436 cells) per well. The cell plate was placed in a carbon dioxide incubator for overnight culture.\nas §3, §4"}, "[6]": {"assay": "Solubility tests in different vehicles (HPLC)", "type": "physicochemical", "conditions": "26 °C, thermodynamic from solid, room temperature 25 to 27° C.", "method": "Samples (about 2 mg) (if the sample was a salt, the required amount of the salt was calculated according to the salt factor in accordance with the criterion that the compound of formula (I) was 2 mg) were weighed respectively and added to a 1.5 mL glass vial. Different vehicles (1 mL) were then added respectively. The above-mentioned suspension was placed on a magnetic stirrer for stirring (room temperature 25 to 27° C.). After stirring for 24 hours, samples were taken. The samples were first centrifuged, and the supernatants were taken. After appropriate dilution according to the situation of the dissolution, the concentrations were determined by HPLC. The results were as follows:\nNotes: • FaSSIF: to simulate the intestinal fluid in the small intestine of human in a hunger state before meal; • FeSSIF: to simulate the intestinal fluid in the small intestine of human in a full state after meal; • SGF: to simulate the gastric juice in the empty stomach of human in a hunger state"}}, "note": "Read-outs that look alike come from different tables or passages of the source.", "data": [{"smiles": "CC(=O)c1c(C)c2cnc(Nc3ccc(N4CCNCC4)cn3)nc2n(C2CCCC2)c1=O", "note": "[Palbociclib]", "values": [{"measurement": "Tumor volume Day 0", "setting": "[1]; 25.0 mg/kg PO QD × 3W", "value": 153, "unit": "mm^3"}, {"measurement": "Tumor volume Day 7", "setting": "[1]; 25.0 mg/kg PO QD × 3W", "value": 203, "unit": "mm^3"}, {"measurement": "Tumor volume Day 14", "setting": "[1]; 25.0 mg/kg PO QD × 3W", "value": 252, "unit": "mm^3"}, {"measurement": "Tumor volume Day 20", "setting": "[1]; 25.0 mg/kg PO QD × 3W", "value": 222, "unit": "mm^3"}, {"measurement": "Tumor volume Day 0", "setting": "[1]; 50.0 mg/kg PO QD × 3W", "value": 153, "unit": "mm^3"}, {"measurement": "Tumor volume Day 7", "setting": "[1]; 50.0 mg/kg PO QD × 3W", "value": 180, "unit": "mm^3"}, {"measurement": "Tumor volume Day 14", "setting": "[1]; 50.0 mg/kg PO QD × 3W", "value": 197, "unit": "mm^3"}, {"measurement": "Tumor volume Day 20", "setting": "[1]; 50.0 mg/kg PO QD × 3W", "value": 137, "unit": "mm^3"}, {"measurement": "tolerability", "setting": "[1]; mouse, in vivo", "value": "intolerable"}, {"measurement": "Tumor volume Day 0", "setting": "[2]", "value": "170 ± 24", "unit": "mm^3"}, {"measurement": "Tumor volume Day 7", "setting": "[2]", "value": "261 ± 38", "unit": "mm^3"}, {"measurement": "Tumor volume Day 14", "setting": "[2]", "value": "266 ± 41", "unit": "mm^3"}, {"measurement": "Tumor volume Day 21", "setting": "[2]", "value": "251 ± 34", "unit": "mm^3"}, {"measurement": "IC50", "setting": "[3]", "value": 88.2, "unit": "nM"}]}, {"smiles": "CC(C)c1c2cc(-c3nc(Nc4ccc(N5CCNCC5)cn4)ncc3F)ccc2nn1C", "note": "[compound of formula (I)]", "values": [{"measurement": "IC50", "setting": "[4]", "value": 32.1, "unit": "nM"}, {"measurement": "IC50", "setting": "[5]", "value": 328, "unit": "nM"}, {"measurement": "solubility at 24 h", "setting": "[6]; simulated gastric fluid, SGF, read-out: Solubility SGF", "value": "> 2000", "unit": "µg/mL"}, {"measurement": "solubility at 24 h", "setting": "[6]; FaSSIF, read-out: Solubility FaSSIF", "value": 13, "unit": "µg/mL"}, {"measurement": "solubility at 24 h", "setting": "[6]; FeSSIF, read-out: Solubility FeSSIF", "value": 1600, "unit": "µg/mL"}, {"measurement": "solubility at 24 h", "setting": "[6]; water, water, H2O, read-out: Solubility H2O", "value": 10, "unit": "µg/mL"}]}, {"smiles": "CCN1CCN(Cc2ccc(Nc3ncc(F)c(-c4cc(F)c5nc(C)n(C(C)C)c5c4)n3)nc2)CC1", "note": "[LY2835219, Abemaciclib]", "values": [{"measurement": "Tumor volume Day 0", "setting": "[1]; 25.0 mg/kg PO QD × 3W", "value": 153, "unit": "mm^3"}, {"measurement": "Tumor volume Day 7", "setting": "[1]; 25.0 mg/kg PO QD × 3W", "value": 155, "unit": "mm^3"}, {"measurement": "Tumor volume Day 0", "setting": "[2]", "value": "172 ± 23", "unit": "mm^3"}, {"measurement": "Tumor volume Day 7", "setting": "[2]", "value": "228 ± 26", "unit": "mm^3"}, {"measurement": "Tumor volume Day 14", "setting": "[2]", "value": "255 ± 30", "unit": "mm^3"}, {"measurement": "Tumor volume Day 21", "setting": "[2]", "value": "272 ± 36", "unit": "mm^3"}, {"measurement": "IC50", "setting": "[3]", "value": 185, "unit": "nM"}]}, {"smiles": "CCN1CCN(Cc2ccc(Nc3ncc(F)c(-c4ccc5nn(C)c(C(C)C)c5c4)n3)nc2)CC1", "note": "[compound of formula (a), reference compound]", "values": [{"measurement": "IC50", "setting": "[4]", "value": 240, "unit": "nM"}, {"measurement": "IC50", "setting": "[5]", "value": 2100, "unit": "nM"}]}]}
